In patent US11919904B2, “Sulfonylamide compounds as CDK2 inhibitors” (Incyte Corporation, priority 2019, dated 2024):

Target: CDK2/Cyclin E1 (Homo sapiens (Human), UniProt P24941)
Assay: CDK2/Cyclin E1 HTRF enzyme activity assay
Assay type: biochemical
Conditions: 1 mM ATP
Description: CDK2/Cyclin E1 enzyme activity assays utilize full-length human CDK2 co-expressed as N-terminal GST-tagged protein with FLAG-Cyclin E1 in a baculovirus expression system (Carna Product Number 04-165). Assays are conducted in white 384-well polystyrene plates in a final reaction volume of 8 μL. CDK2/Cyclin E1 (0.25 nM) is incubated with compounds (40 nL serially diluted in DMSO) in the presence of ATP (50 μM or 1 mM) and 50 nM ULight™-labeled eIF4E-binding protein 1 (THR37/46) peptide (PerkinElmer) in assay buffer (containing 50 mM HEPES pH 7.5, 1 mM EGTA, 10 mM MgCl2, 2 mM DTT, 0.05 mg/mL BSA, and 0.01% Tween 20) for 60 minutes at room temperature. The reactions are stopped by the addition of EDTA and Europium-labeled anti-phospho-4E-BP1 antibody (PerkinElmer), for a final concentration of 15 mM and 1.5 nM, respectively. HTRF signals are read after 1 hour at room temperature on a PHERAstar FS plate reader (BMG Labtech). Data is analyzed with IDBS XLFit and GraphPad Prism 5.0 software using a three or four parameter dose response curve to determine IC50 for each compound.

Row | SMILES | IC50
1 | CNS(=O)(=O)c1ccc(Nc2ncc3c(n2)N([C@@H]2CCC[C@]2(C)O)C(=O)C32CC2)cc1 (relative stereo) [Example 1, 4-((7′-((cis)-2-hydroxy-2-methylcyclopentyl)-6′-oxo-6′,7′-dihydrospiro[cyclopropane-1,5′-pyrrolo[2,3-d]pyrimidin]-2′-yl)amino)-N-methylbenzenesulfonamide] | ≤ 50 nM
2 | CNS(=O)(=O)c1ccc(Nc2ncc3c(n2)N([C@@H]2CCC[C@H]2C)C(=O)C32CC2)cc1 (relative stereo) [Example 2, N-methyl-4-((7′-((trans)-2-methylcyclopentyl)-6′-oxo-6′,7′-dihydrospiro[cyclopropane-1,5′-pyrrolo[2,3-d]pyrimidin]-2′-yl)amino)benzenesulfonamide] | ≤ 50 nM
3 | CC1(NS(=O)(=O)c2ccc(Nc3ncc4c(n3)N([C@@H]3CCC[C@]3(C)O)C(=O)C43CC3)cc2)CNC1 (relative stereo) [Example 3, 4-((7′-((cis)-2-hydroxy-2-methylcyclopentyl)-6′-oxo-6′,7′-dihydrospiro[cyclopropane-1,5′-pyrrolo[2,3-d]pyrimidin]-2′-yl)amino)-N-(3-methylazetidin-3-yl)benzenesulfonamide] | ≤ 50 nM
4 | CNS(=O)(=O)c1ccc(Nc2ncc3c(n2)N([C@@H]2CCC[C@@]2(C)O)C(=O)C32CC2)c(F)c1 (relative stereo) [Example 11, 3-fluoro-4-((7′-((trans)-2-hydroxy-2-methylcyclopentyl)-6′-oxo-6′,7′-dihydrospiro[cyclopropane-1,5′-pyrrolo[2,3-d]pyrimidin]-2′-yl)amino)-N-methylbenzenesulfonamide] | ≤ 50 nM
5 | [2H]C([2H])([2H])NS(=O)(=O)c1ccc(Nc2ncc3c(n2)N([C@@H]2CCC[C@@]2(C)O)C(=O)C32CC2)cc1 (single isomer, unassigned) [Example 9, 4-((7′-((trans)-2-hydroxy-2-methylcyclopentyl)-6′-oxo-6′,7′-dihydrospiro [cyclopropane-1,5′-pyrrolo[2,3-d]pyrimidin]-2′-yl)amino)-N-(methyl-d)benzene sulfonamide] | ≤ 50 nM
6 | CC[C@@H](N1C(=O)C2(CC2)c2cnc(Nc3ccc(S(=O)(=O)NC)cc3)nc21)C(F)(F)F [Example 4, (R)—N-methyl-4-((6′-oxo-7′-(1,1,1-trifluorobutan-2-yl)-6′,7′-dihydrospiro[cyclopropane-1,5′-pyrrolo[2,3-d]pyrimidin]-2′-yl)amino)benzenesulfonamide] | ≤ 50 nM
7 | CC1CCCC1N1C(=O)C2(CC2)c2cnc(Nc3ccc(S(=O)(=O)N[C@@H]4CCCN(C)C4)cc3)nc21 (stereo partly drawn) [Example 5, 4-((7′-(2-methylcyclopentyl)-6′-oxo-6′,7′-dihydrospiro[cyclopropane-1,5′-pyrrolo[2,3-d]pyrimidin]-2′-yl)amino)-N—((R)-1-methylpiperidin-3-yl) benzenesulfonamide] | ≤ 50 nM
8 | CNS(=O)(=O)c1ccc(Nc2ncc3c(n2)N([C@@H]2CCC[C@@H](O)C2)C(=O)C32CC2)cc1 [Example 6, 4-((7′-((1R,3R)-3-hydroxycyclohexyl)-6′-oxo-6′,7′-dihydrospiro [cyclopropane-1,5′-pyrrolo[2,3-d]pyrimidin]-2′-yl)amino)-N-methylbenzene sulfonamide] | ≤ 50 nM
9 | [2H]C([2H])([2H])NS(=O)(=O)c1ccc(Nc2ncc3c(n2)N([C@@H]2CCC[C@@H](O)C2)C(=O)C32CC2)cc1 [Example 7, 4-((7′-((1R,3R)-3-hydroxycyclohexyl)-6′-oxo-6′,7′-dihydrospiro[cyclopropane-1,5′-pyrrolo[2,3-d]pyrimidin]-2′-yl)amino)-N-(methyl-d)benzenesulfonamide] | ≤ 50 nM
10 | [2H]C([2H])([2H])NS(=O)(=O)c1ccc(Nc2ncc3c(n2)N([C@@H](C)C2CC2)C(=O)C32CC2)cc1 [Example 8, (S)-4-((7′-(1-cyclopropylethyl)-6′-oxo-6′,7′-dihydrospiro[cyclopropane-1,5′-pyrrolo[2,3-d]pyrimidin]-2′-yl)amino)-N-(methyl-d)benzenesulfonamide] | ≤ 50 nM
11 | CC(C)(O)CNS(=O)(=O)c1ccc(Nc2ncc3c(n2)N([C@@H]2CCC[C@@]2(C)O)C(=O)C32CC2)cc1 [Example 10, 4-((7′-(2-hydroxy-2-methylcyclopentyl)-6′-oxo-6′,7′-dihydrospiro [cyclopropane-1,5′-pyrrolo[2,3-d]pyrimidin]-2′-yl)amino)-N-(2-hydroxy-2-methylpropyl)benzenesulfonamide] | ≤ 50 nM
12 | CN(C)CCNS(=O)(=O)c1ccc(Nc2ncc3c(n2)N(c2cc(F)ccc2Cl)C(=O)C32CC2)cc1 [Example 12, 4-((7′-(2-chloro-5-fluorophenyl)-6′-oxo-6′,7′-dihydrospiro[cyclopropane-1,5′-pyrrolo[2,3-d]pyrimidin]-2′-yl)amino)-N-(2-(dimethylamino)ethyl)benzenesulfonamide] | ≤ 50 nM
13 | CNS(=O)(=O)c1ccc(Nc2ncc3c(n2)N(c2cc4c(cc2Cl)CNCC4)C(=O)C32CC2)cc1 [Example 13, 4-((7′-(7-chloro-1,2,3,4-tetrahydroisoquinolin-6-yl)-6′-oxo-6′,7′-dihydrospiro[cyclopropane-1,5′-pyrrolo[2,3-d]pyrimidin]-2′-yl)amino)-N-methylbenzenesulfonamide] | ≤ 50 nM
14 | CNS(=O)(=O)c1ccc(Nc2ncc3c(n2)N(c2cc(F)ccc2C)C(=O)C32CC2)cc1 [Example 14, 4-((7′-(5-fluoro-2-methylphenyl)-6′-oxo-6′,7′-dihydrospiro[cyclopropane-1,5′-pyrrolo[2,3-d]pyrimidin]-2′-yl)amino)-N-methylbenzenesulfonamide] | ≤ 50 nM
15 | CNS(=O)(=O)c1ccc(Nc2ncc3c(n2)N(c2cc(F)ccc2Cl)C(=O)C32CC2)cc1 [Example 15, 4-((7′-(2-chloro-5-fluorophenyl)-6′-oxo-6′,7′-dihydrospiro[cyclopropane-1,5′-pyrrolo[2,3-d]pyrimidin]-2′-yl)amino)-N-methylbenzenesulfonamide] | ≤ 50 nM
